Test results published in patent publication US6911470B1, “Polyoxometalate compounds as antiviral agents” (priority 1988, dated 2005).

Legend:
[1] = test system: Friend retrovirus, strain FV-PLS; experiment: Splenomegaly model in BALB/c mice infected with Friend virus; conditions: for % Effectiveness / Mean Spleen wt. (mg) ± SD: sacrifice day 16
Procedure: Tests were conducted in whole infected mice using one of the compounds to the present invention. The methodology of this test is the same as was used in Ruprecht et al, Nature 323, 467-469, except that Friend virus was used instead of Rauscher virus.
Comparison of Toxicity of Polyoxometalate Compounds Mice. Female BALB/c mice (3 to 4 weeks old), obtained from Charles River Laboratories (Raleigh, N.C.), were acclimatized in the animal facility for two weeks. They-were then inoculated (200 μl) into the peritoneal cavity with Friend retrovirus, strain FV-PLS. A virus inoculum [about 100 focus forming units (FFU)/mouse] was selected which caused a splenomegaly rate of 100% on day 16 after virus inoculation in untreated animals. The virus titer of the inoculum was determined by a UV/XC assay.
In vivo antiviral experiments. Mice were inoculated intraperitoneally with virus at noon and then randomized into ten animals per treatment group. Five hours after virus inoculation, the mice were treated intraperitoneally with the compounds. Treatment was continued daily for 6 or 10 days. On day 16 after virus inoculation, the animals were sacrificed by carbon dioxide inhalation and their spleens removed under aseptic conditions and weighed.

SIV = experiment: Activity against SIV; assay type: cell-based, simian immunodeficiency virus; conditions: Table 2
[2] = background statement; AZT in a clinical setting; cited from earlier work
[3] = Comparison of toxicity of polyoxometalate compounds in mice (mortality, haematology); assay type: in vivo; parameters: MCV (mean corpuscular volume): unit not given here; conditions: BID × 6, 60 mkd i.p.
Excerpt: Comparison of Toxicity of Polyoxometalate Compounds Mice.
In vivo antiviral experiments. […] Treatment was continued daily for 6 or 10 days.

Compound | % Mortality ([1]; 30 mkd IP QD × 10) | % Effectiveness ([1]; 30 mkd IP QD × 10) | Mean Spleen wt. (mg) ± SD ([1]; 30 mkd IP QD × 10) | % Mortality ([1]; 60 mkd IP QD × 10) | % Effectiveness ([1]; 60 mkd IP QD × 10) | Mean Spleen wt. (mg) ± SD ([1]; 60 mkd IP QD × 10) | EC50 (SIV) | adverse effect [2] | Hct (hematocrit) ([3]; bled on day 17) | Hgb (hemaglobin) ([3]; bled on day 17) | MCH ([3]; bled on day 17) | MCHC (mean corpuscular hemoglobin concentration) ([3]; bled on day 17) | MCV (mean corpuscular volume) ([3]; bled on day 17) | PLT (platelates) (×1000) ([3]; bled on day 17) | RBC (×1000000) ([3]; bled on day 17) | RDW (width of red cells) ([3]; bled on day 17) | WBC (×1000) ([3]; bled on day 17) | Mortality ([3]; dead/total)
Cc1cn([C@H]2C[C@H](N=[N+]=[N-])[C@@H](CO)O2)c(=O)[nH]c1=O [Formula 22, 3′-azido-3′-deoxythymidine, reference compound] | 0% | 38.4% | 1,249 ± 1,152 mg | 0% | 51.3% | 988 ± 836 mg | 2.88 nM | reversible bone marrow toxicity |  |  |  |  |  |  |  |  |  | 
(ArgH^+)m(H^+)4-mST, where m=1-4 [(ARGH^+)nH^+(4−n)ST] |  |  |  |  |  |  |  |  | 18.16 ± 6.02% | 7.08 ± 2.51 g/dL | 17.8 ± 1.6 pg | 38.62 ± 3.49 g/dL | 46.08 ± 0.45 | 325 ×1000 | 3.95 ± 1.31 ×1000000 | 36.68 ± 1.31% | 6.28 ± 2.19 ×1000 | 0/5
